The source made the active and inactive calls. Rule as the data show it, for most assays here: actives have a measured EC50 and inactives only a lower limit.
test system: not listed separately; experiment: C. albicans growth with fluconazole, confirmation, fluorescence, retest (AID 2467); assay type: functional, cell-based; conditions: not given

| SMILES | EC50 |
| --- | --- |
| C/[N+]([O-])=C\c1ccc([N+](=O)[O-])o1 | 0.885 µM (active) |
| Cc1ccc2nc(Cl)c3nnnn3c2c1 | 0.646 µM (active) |
| O=C(CSc1cccc[n+]1[O-])CSc1cccc[n+]1[O-] | 3.9 µM (active) |
| COc1ccccc1NS(=O)(=O)c1cc(NC(=O)CCC(=O)c2cccs2)ccc1Cl | 0.417 µM (active) |
| Cc1ccc(OCC(=O)N/N=C\c2c(C)[nH]n(-c3ccccc3)c2=O)c([N+](=O)[O-])c1 | 6.77 µM (active) |
| Cc1ccc(-n2nc(C)c(/C=N/NC(=O)c3ccc([N+](=O)[O-])cc3)c2O)c(C)c1 | 1.71 µM (active) |

molecular target: Paired box protein Pax-8 (Homo sapiens, UniProt Q06710); experiment: inhibitors of PAX8-driven TPO luciferase reporter, dose response, RMG-I cells, cherry-pick (AID 687027); assay type: functional, cell-based; conditions: not given;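 also: luciferase reporter driven by Pax8 target thyroperoxidase promoter measured by SteadyGlo luminescence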
Sequence (Q06710 whole entry): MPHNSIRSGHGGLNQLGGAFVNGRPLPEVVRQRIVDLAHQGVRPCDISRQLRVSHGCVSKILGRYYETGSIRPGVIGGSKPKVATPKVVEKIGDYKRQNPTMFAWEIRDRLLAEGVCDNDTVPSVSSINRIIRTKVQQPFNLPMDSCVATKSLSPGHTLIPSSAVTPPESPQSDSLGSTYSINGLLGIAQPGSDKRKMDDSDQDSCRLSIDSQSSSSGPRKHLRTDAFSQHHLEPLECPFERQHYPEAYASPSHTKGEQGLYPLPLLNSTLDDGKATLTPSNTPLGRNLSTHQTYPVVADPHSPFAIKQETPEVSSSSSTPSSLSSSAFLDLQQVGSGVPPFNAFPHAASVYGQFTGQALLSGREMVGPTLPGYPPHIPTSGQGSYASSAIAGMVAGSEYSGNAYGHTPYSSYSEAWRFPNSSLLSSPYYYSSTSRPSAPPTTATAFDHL

| SMILES | AC50 |
| --- | --- |
| COC(=O)C1=C(c2ccc(F)cc2OCc2ccccc2)C[C@@H]2CC[C@H]1N2C(=O)NCc1ccc(C)cc1 | 15.1 µM (active) |

test system: not listed separately; experiment: Luminescence Cell-Based Dose Retest to Confirm Inhibitors of Cancer Stem Cells. [Related pubchem assays (depositor defined):AID2717, AID2721]; assay type: functional; conditions: Homo sapiens

| SMILES | AC50 |
| --- | --- |
| Cc1c(CCOC(=O)CC23CC4CC(CC(C4)C2)C3)sc[n+]1CC(=O)c1ccc(Br)cc1 | 2.42 µM (active) |

molecular target: T1, Replicative DNA helicase DnaB (Mycobacterium tuberculosis, UniProt P9WMR3); experiment: DnaB intein splicing inhibitors, dose response, biochemical, cell-free fluorescence (AID 449749); assay type: functional; conditions: not given
T1 sequence (P9WMR3 whole entry): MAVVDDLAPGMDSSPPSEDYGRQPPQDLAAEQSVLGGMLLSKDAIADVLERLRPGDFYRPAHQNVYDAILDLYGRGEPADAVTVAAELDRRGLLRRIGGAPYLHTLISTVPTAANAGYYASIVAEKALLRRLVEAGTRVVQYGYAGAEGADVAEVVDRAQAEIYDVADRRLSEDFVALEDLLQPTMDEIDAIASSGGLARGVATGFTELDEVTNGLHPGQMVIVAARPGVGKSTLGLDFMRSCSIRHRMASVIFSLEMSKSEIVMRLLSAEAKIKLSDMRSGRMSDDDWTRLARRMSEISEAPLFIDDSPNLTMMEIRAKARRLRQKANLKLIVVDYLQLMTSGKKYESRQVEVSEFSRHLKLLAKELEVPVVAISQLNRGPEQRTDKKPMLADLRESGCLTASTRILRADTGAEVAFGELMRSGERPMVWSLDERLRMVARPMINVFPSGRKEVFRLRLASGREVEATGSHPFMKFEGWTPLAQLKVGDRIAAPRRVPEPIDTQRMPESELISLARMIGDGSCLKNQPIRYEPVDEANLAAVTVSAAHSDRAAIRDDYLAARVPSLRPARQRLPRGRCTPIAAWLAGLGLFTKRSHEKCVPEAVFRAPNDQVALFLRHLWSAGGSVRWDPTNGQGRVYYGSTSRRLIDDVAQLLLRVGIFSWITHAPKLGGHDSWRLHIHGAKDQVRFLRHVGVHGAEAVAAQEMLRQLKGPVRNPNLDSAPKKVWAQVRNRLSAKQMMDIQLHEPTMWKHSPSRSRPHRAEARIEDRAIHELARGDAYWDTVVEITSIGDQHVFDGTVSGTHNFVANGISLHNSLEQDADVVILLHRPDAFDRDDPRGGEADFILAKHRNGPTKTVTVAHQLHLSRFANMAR

| SMILES | AC50 |
| --- | --- |
| COc1ccc(C(=O)n2nnc3ccccc32)cc1Br | 24.6 µM (active) |
| CC[n+]1ccc2cc(OC)c(OC)cc2c1Cc1ccc(OC)c(OC)c1 | > 120 µM (inactive) |
| Cn1c(SCC(=O)NCC2CCCO2)ncc(C(=O)Nc2ccccc2)c1=O (centres undefined) | 28 µM (active) |
| COc1ccc(/C=C2/C(=O)N(c3cccc(F)c3)N=C2C)c(OC)c1 | 4.14 µM (active) |
| Cc1cccc(OCC(=O)Oc2ccc(Cl)cc2)c1 | 9.75 µM (active) |
| CC1=NN(C)C(=O)C1Cc1c(F)cccc1Cl (centres undefined) | 5.39 µM (active) |
| C/C(CC(=O)Nc1ccc(Cl)cn1)=N\NC(=O)Cc1cccs1 | 30.5 µM (active) |
| Cc1ccc(-n2nc(C)c(/C=N/NC(=O)c3ccc([N+](=O)[O-])cc3)c2O)c(C)c1 | 6.38 µM (active) |

molecular target: T2, Ubiquitin-conjugating enzyme E2 N (Homo sapiens, UniProt P61088); assay type: functional; conditions: not given;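 also: Dose-response confirmation in a TR-FRET assay detecting UBC13-driven polyubiquitin chain formation, inhibition measured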
T2 sequence (P61088 whole entry): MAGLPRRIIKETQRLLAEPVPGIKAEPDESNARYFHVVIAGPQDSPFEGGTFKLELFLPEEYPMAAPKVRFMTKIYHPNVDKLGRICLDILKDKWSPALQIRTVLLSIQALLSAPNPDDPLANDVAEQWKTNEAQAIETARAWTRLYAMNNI

| SMILES | IC50 |
| --- | --- |
| Oc1ccc(C2=NN=C(NCc3ccc4c(c3)OCO4)SC2)c(O)c1 | > 20 µM (inactive) |
| Cc1c(CCOC(=O)CC23CC4CC(CC(C4)C2)C3)sc[n+]1CC(=O)c1ccc(Br)cc1 | > 20 µM (inactive) |
| Oc1ccc2ccccc2c1CNc1ccccn1 | > 20 µM (inactive) |

molecular target: T3, Heat shock factor protein 1 (Mus musculus, UniProt P38532); experiment: HSF1 potentiators in luciferase reporter cells, confirmation, cell-based, NIH3T3, luminescence, dose retest (AID 435004); assay type: functional; conditions: not given;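 also: stress induced by proteasome inhibitor MG132 added 30 min after compound; luciferase reporter driven by HSF1 response element in NIH3T3 cells; actives raise luminescence as potentiators of the MG132 stress response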
T3 sequence (P38532 whole entry): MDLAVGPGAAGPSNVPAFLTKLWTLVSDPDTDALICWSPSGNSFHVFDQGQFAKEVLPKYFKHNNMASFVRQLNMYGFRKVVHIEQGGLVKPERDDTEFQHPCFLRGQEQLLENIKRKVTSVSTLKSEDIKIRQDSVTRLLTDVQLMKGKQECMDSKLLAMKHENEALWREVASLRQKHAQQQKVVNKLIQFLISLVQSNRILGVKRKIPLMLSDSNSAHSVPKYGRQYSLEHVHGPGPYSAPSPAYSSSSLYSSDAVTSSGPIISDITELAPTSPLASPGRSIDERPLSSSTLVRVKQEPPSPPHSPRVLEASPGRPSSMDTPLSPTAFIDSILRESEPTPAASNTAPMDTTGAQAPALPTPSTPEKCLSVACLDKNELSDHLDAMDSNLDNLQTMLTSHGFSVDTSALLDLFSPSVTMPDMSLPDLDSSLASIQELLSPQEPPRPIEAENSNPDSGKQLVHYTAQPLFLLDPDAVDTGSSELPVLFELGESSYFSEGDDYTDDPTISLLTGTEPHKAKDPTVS

| SMILES | EC50 |
| --- | --- |
| OC(CNCc1cccc(Cl)c1)c1ccccc1 (centres undefined) | > 260 µM (inactive) |

molecular target: Luciferin 4-monooxygenase (Photinus pyralis, UniProt P08659); experiment: firefly luciferase enzyme inhibitors, dose response, biochemical, luminescence (AID 1891); conditions: not given
Sequence (P08659 whole entry): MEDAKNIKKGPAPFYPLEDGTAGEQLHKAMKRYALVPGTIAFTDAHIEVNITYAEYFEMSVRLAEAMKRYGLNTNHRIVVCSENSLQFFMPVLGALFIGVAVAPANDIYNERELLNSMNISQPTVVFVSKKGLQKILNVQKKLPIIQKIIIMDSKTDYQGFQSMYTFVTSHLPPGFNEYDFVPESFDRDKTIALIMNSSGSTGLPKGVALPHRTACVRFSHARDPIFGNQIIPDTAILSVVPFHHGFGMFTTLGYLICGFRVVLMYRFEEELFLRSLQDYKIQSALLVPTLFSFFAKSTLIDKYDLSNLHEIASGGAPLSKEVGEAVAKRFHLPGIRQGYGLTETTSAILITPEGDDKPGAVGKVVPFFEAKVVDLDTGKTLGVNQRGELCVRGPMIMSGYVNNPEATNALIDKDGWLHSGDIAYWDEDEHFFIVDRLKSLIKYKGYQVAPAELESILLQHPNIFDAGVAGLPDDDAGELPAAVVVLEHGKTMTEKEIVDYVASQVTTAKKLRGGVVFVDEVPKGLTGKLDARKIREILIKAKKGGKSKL

| SMILES | EC50 |
| --- | --- |
| O=C(Nc1ccc(C(=O)N2CCN(c3ccc(Cl)cc3)CC2)cc1)C1=CSCCO1 | 31.2 µM (active) |
| CC1(C)CC(=O)C=C(Nc2ccc3c(c2)OCCO3)C1 | > 112 µM (not active) |
| CCN(CC)CC(=O)n1c2c(c3ccccc31)CCCC2 | > 112 µM (not active) |
| OC(CNCc1cccc(Cl)c1)c1ccccc1 (centres undefined) | > 112 µM (not active) |
| O=S(=O)(Nc1ccc(-c2ccc(N3CCOCC3)nn2)cc1)c1ccc(Cl)c(Cl)c1 | 35.3 µM (active) |
| COc1nc2ccccc2nc1OC | > 112 µM (not active) |
| Nc1c(Cl)ncnc1N/N=C/c1cccc(O)c1 | 58.1 µM (active) |

test system: not listed separately; experiment: inhibitors of intracellular T. cruzi replication, confirmation, NIH3T3 host cells, beta-gal luminescence (AID 2044); assay type: functional, cell-based; conditions: not given;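 also: intracellular parasites grown in NIH/3T3 mouse fibroblasts as host cells; luminescent beta-galactosidase reporter signal from transgenic T. cruzi replicating inside host cells; inhibitors lower the luminescence signal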

| SMILES | EC50 |
| --- | --- |
| C/[N+]([O-])=C\c1ccc([N+](=O)[O-])o1 | 0.54 µM (active) |
| O=C(CSc1cccc[n+]1[O-])CSc1cccc[n+]1[O-] | 6.09 µM (active) |

molecular target: T4, Protein RecA (Mycobacterium tuberculosis, UniProt P9WHJ3); experiment: Fluorescence Cell-Free Homogeneous Dose Retest to Identify Inhibitors of RecA-Intein Splicing Activity. [Related pubchem assays (depositor defined):AID2097, AID2223, AID489010, AID492950]; assay type: functional; conditions: not given
T4 sequence (P9WHJ3 whole entry): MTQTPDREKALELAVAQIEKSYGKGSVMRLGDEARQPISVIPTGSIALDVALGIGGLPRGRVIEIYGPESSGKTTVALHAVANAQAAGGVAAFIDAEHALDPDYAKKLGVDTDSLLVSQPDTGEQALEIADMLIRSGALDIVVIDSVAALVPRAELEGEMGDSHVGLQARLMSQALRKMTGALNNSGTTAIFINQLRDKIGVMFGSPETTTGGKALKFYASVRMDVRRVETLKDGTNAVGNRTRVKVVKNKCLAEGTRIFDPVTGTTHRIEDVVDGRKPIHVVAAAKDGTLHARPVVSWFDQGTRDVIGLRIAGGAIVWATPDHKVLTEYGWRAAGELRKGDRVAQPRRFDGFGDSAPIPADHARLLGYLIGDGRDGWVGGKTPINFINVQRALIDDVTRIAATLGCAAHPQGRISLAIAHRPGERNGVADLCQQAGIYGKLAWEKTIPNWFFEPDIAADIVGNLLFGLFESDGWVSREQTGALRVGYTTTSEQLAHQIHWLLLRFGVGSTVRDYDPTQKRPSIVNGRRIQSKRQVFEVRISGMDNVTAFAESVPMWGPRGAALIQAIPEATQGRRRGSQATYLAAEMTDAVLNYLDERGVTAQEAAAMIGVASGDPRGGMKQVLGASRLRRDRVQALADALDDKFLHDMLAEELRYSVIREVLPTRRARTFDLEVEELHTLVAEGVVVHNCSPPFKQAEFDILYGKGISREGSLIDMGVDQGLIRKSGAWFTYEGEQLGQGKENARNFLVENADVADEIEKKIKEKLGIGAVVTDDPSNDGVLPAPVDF

| SMILES | EC50 |
| --- | --- |
| COc1ccc(C(=O)n2nnc3ccccc32)cc1Br | 30 µM (active) |
| CC[n+]1ccc2cc(OC)c(OC)cc2c1Cc1ccc(OC)c(OC)c1 | > 380 µM (inactive) |
| Cn1c(SCC(=O)NCC2CCCO2)ncc(C(=O)Nc2ccccc2)c1=O (centres undefined) | 3.38 µM (active) |
| COc1ccc(/C=C2/C(=O)N(c3cccc(F)c3)N=C2C)c(OC)c1 | 44.6 µM (active) |
| Cc1cccc(OCC(=O)Oc2ccc(Cl)cc2)c1 | 35.1 µM (active) |
| CC1=NN(C)C(=O)C1Cc1c(F)cccc1Cl (centres undefined) | 0.74 µM (active) |
| C/C(CC(=O)Nc1ccc(Cl)cn1)=N\NC(=O)Cc1cccs1 | 5.12 µM (active) |
| Cc1ccc(-n2nc(C)c(/C=N/NC(=O)c3ccc([N+](=O)[O-])cc3)c2O)c(C)c1 | 21.2 µM (active) |

test system: not listed separately; experiment: cytotoxicity toward NIH3T3 fibroblasts, dose response, counter-screen, cell-based, ATP luminescence, mouse fibroblasts (AID 2010); assay type: functional; conditions: not given;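 also: cells exposed to compound for about 90 hours before reading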

| SMILES | EC50 |
| --- | --- |
| C/[N+]([O-])=C\c1ccc([N+](=O)[O-])o1 | > 60 µM (not active) |
| O=C(CSc1cccc[n+]1[O-])CSc1cccc[n+]1[O-] | > 30 µM (not active) |

test system: not listed separately; experiment: NIH-3T3 fibroblast cytotoxicity, dose response, cytotoxicity control, cell-based, fluorescence, Alamar Blue, secondary assay (AID 2327); assay type: functional; conditions: not given;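 also: NIH-3T3 mouse fibroblasts cultured with fluconazole at 8 µg/mL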

| SMILES | EC50 |
| --- | --- |
| C/[N+]([O-])=C\c1ccc([N+](=O)[O-])o1 | > 160 µM (inactive) |
| Cc1ccc2nc(Cl)c3nnnn3c2c1 | 4.94 µM (inconclusive) |
| O=C(CSc1cccc[n+]1[O-])CSc1cccc[n+]1[O-] | > 160 µM (inactive) |
| COc1ccccc1NS(=O)(=O)c1cc(NC(=O)CCC(=O)c2cccs2)ccc1Cl | 123 µM (active) |
| Cc1ccc(OCC(=O)N/N=C\c2c(C)[nH]n(-c3ccccc3)c2=O)c([N+](=O)[O-])c1 | > 150 µM (inactive) |
| Cc1ccc(-n2nc(C)c(/C=N/NC(=O)c3ccc([N+](=O)[O-])cc3)c2O)c(C)c1 | 11.7 µM (active) |

test system: not listed separately; experiment: Luminescence Cell-Based Dose Confirmation HTS to Identify Inhibitors of Platelet Dense Granule Release. [Related pubchem assays: 1663 (Primary HTS), 1678 (Summary of Project)]; assay type: functional; conditions: not given

| SMILES | EC50 |
| --- | --- |
| O=C(Nc1ccc(C(=O)N2CCN(c3ccc(Cl)cc3)CC2)cc1)C1=CSCCO1 | > 112 µM (not active) |
| CC1(C)CC(=O)C=C(Nc2ccc3c(c2)OCCO3)C1 | 11 µM (active) |
| CCN(CC)CC(=O)n1c2c(c3ccccc31)CCCC2 | > 112 µM (not active) |
| OC(CNCc1cccc(Cl)c1)c1ccccc1 (centres undefined) | 21.2 µM (active) |
| O=S(=O)(Nc1ccc(-c2ccc(N3CCOCC3)nn2)cc1)c1ccc(Cl)c(Cl)c1 | > 112 µM (not active) |
| COc1nc2ccccc2nc1OC | > 112 µM (not active) |
| Nc1c(Cl)ncnc1N/N=C/c1cccc(O)c1 | 22 µM (active) |

test system: not listed separately; experiment: Shn3 3'UTR reporter inhibitors, dose response, cell-based, Clone20 osteoblasts, firefly luciferase, cherry-picked (AID 624132); assay type: functional; conditions: not given;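 also: firefly luciferase luminescence from reporter carrying the Shn3 3'UTR in osteoblasts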

| SMILES | AC50 |
| --- | --- |
| Cc1c(CCOC(=O)CC23CC4CC(CC(C4)C2)C3)sc[n+]1CC(=O)c1ccc(Br)cc1 | 12.9 µM (active) |

test system: not listed separately; experiment: inhibitors of clade B AD8 Env fusion, dose response, cell-based, cherry-pick (AID 652062); assay type: functional; conditions: not given;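 also: luciferase signal from cell-cell fusion driven by HIV-1 clade B AD8 Env; potency is for inhibitors of fusion seen as a drop in luminescence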

| SMILES | AC50 |
| --- | --- |
| CN(C)Cc1cn(CC[C@@H]2CC[C@H](N)[C@H](CO)O2)nn1 | 22.9 µM (active) |
